What was measured:
[1] = tested on: SETVI; assay: Post-emergence herbicidal action against SETVI; type: in vivo, Setaria viridis; conditions: Setaria viridis, 504 h; for pest or weed control at 20 g/ha: dosage 20 g/ha
Summary of the method: (§1)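 Spray, one-leaf stage: WP or EC compound in water, 600–800 l/ha, 0.2% wetting agent. Plants held about 3 weeks in the greenhouse, then visually rated in percent of kill compared with untreated controls.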

[2] = tested on: AVEFA; assay: Post-emergence herbicidal action against AVEFA; type: in vivo, Avena fatua; conditions: 20 g/ha, visual assessment about 3 weeks after treatment, 100% = plants have died, 0% = like control plants; for pest or weed control at 20 g/ha: Avena fatua, 504 h
Summary of the method: as §1

[3] = tested on: VIOTR; assay: Pre-emergence herbicidal action against VIOTR; type: in vivo, Viola tricolor
Summary of the method: (§2)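 Pre-emergence soil-surface spray of formulated compound (WP or EC; 600 to 800 l/ha; 0.2% wetting agent) over seeds sown in sandy loam. After 3 weeks under greenhouse conditions, damage is estimated visually in percent against untreated plants.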

[4] = tested on: HORMU; assay: Pre-emergence herbicidal action against HORMU; type: in vivo, Hordeum murinum; conditions: 80 g/ha, pre-emergence; for pest or weed control at 80 g/ha: Hordeum murinum, 504 h
Excerpt: Seeds of monocotyledonous and dicotyledonous weed plants and crop plants are laid out in sandy loam soil in wood-fiber pots and covered with soil. The compounds of the invention, formulated in the form of wettable powders (WP) or as emulsion concentrates (EC), are then applied to the surface of the covering soil in the form of an aqueous suspension or emulsion at a water application rate equivalent to 600 to 800 l/ha, with addition of 0.2% wetting agent. After the treatment, the pots are placed in a greenhouse and kept under good growth conditions for the trial plants. The damage to the test plants is scored visually after a test period of 3 weeks by comparison with untreated controls (herbicidal activity in percent (%): 100% activity=the plants have died, 0% activity=like control plants). […] The tables below illustrate, in an illustrative manner, the post-emergence herbicidal action of the compounds of the invention, the herbicidal activity being stated in percent.

[5] = tested on: ALOMY; assay: Pre-emergence herbicidal action against ALOMY; type: in vivo, Alopecurus myosuroides; conditions: pre-emergence
Summary of the method: as §2

[6] = tested on: MATIN; assay: Pre-emergence herbicidal action against MATIN; type: in vivo, Matricaria inodora
Summary of the method: as §2

[7] = tested on: ABUTH; assay: Post-emergence herbicidal action against ABUTH; type: in vivo, Abutilon theophrasti; conditions: visual assessment about 3 weeks after treatment vs untreated controls; for pest or weed control at 5 g/ha / pest or weed control at 20 g/ha: Abutilon theophrasti, 504 h
Summary of the method: as §1

[8] = tested on: ECHCG; assay: Pre-emergence herbicidal action against ECHCG; type: in vivo, Echinochloa crus-galli; conditions: 80 g/ha; for pest or weed control at 80 g/ha: Echinochloa crus-galli, 504 h
Summary of the method: as §2

[9] = tested on: PHBPU; assay: Post-emergence herbicidal action against PHBPU; type: in vivo, Pharbitis purpurea; conditions: Ipomoea purpurea, 504 h
Summary of the method: as §1

[10] = tested on: AMARE; assay: Pre-emergence herbicidal action against AMARE; type: in vivo, Amaranthus retroflexus; conditions: for pest or weed control at 20 g/ha / pest or weed control at 80 g/ha: Amaranthus retroflexus, 504 h
Summary of the method: as §2

[11] = tested on: VIOTR; assay: Post-emergence herbicidal action against VIOTR; type: in vivo, Viola tricolor
Summary of the method: as §1

[12] = tested on: POLCO; assay: Pre-emergence herbicidal action against POLCO; type: in vivo, Polygonum convolvulus; conditions: Fallopia convolvulus, 504 h
Summary of the method: as §2

[13] = tested on: ABUTH; assay: Pre-emergence herbicidal action against ABUTH; type: in vivo, Abutilon theophrasti
Summary of the method: as §2

[14] = tested on: DIGSA; assay: Post-emergence herbicidal action against DIGSA; type: in vivo, Digitaria sanguinalis; conditions: Digitaria sanguinalis, 504 h
Summary of the method: as §1

[15] = tested on: STEME; assay: Post-emergence herbicidal action against STEME; type: in vivo, Stellaria media; conditions: for pest or weed control at 20 g/ha / pest or weed control at 5 g/ha: Stellaria media, 504 h; for pest or weed control at 5 g/ha: dosage 5 g/ha
Summary of the method: as §1

[16] = tested on: SETVI; assay: Pre-emergence herbicidal action against SETVI; type: in vivo, Setaria viridis; conditions: Setaria viridis, 504 h; for pest or weed control at 80 g/ha: dosage 80 g/ha
Summary of the method: as §2

[17] = tested on: ALOMY; assay: Post-emergence herbicidal action against ALOMY; type: in vivo, Alopecurus myosuroides; conditions: Alopecurus myosuroides, 504 h, dosage 20 g/ha, visual assessment about 3 weeks after treatment vs untreated controls
Summary of the method: as §1

[18] = tested on: STEME; assay: Pre-emergence herbicidal action against STEME; type: in vivo, Stellaria media
Summary of the method: as §2

[19] = tested on: AMARE; assay: Post-emergence herbicidal action against AMARE; type: in vivo, Amaranthus retroflexus; conditions: 20 g/ha, visual assessment about 3 weeks after treatment, 100% = plants have died, 0% = like control plants; for pest or weed control at 20 g/ha: Amaranthus retroflexus, 504 h
Summary of the method: as §1

[20] = tested on: DIGSA; assay: Pre-emergence herbicidal action against DIGSA; type: in vivo, Digitaria sanguinalis
Summary of the method: as §2

[21] = tested on: VERPE; assay: Post-emergence herbicidal action against VERPE; type: in vivo, Veronica persica; conditions: 20 g/ha
Summary of the method: as §1

[22] = tested on: MATIN; assay: Post-emergence herbicidal action against MATIN; type: in vivo, Matricaria inodora; conditions: dosage 20 g/ha
Summary of the method: as §1

[23] = tested on: AVEFA; assay: Pre-emergence herbicidal action against AVEFA; type: in vivo, Avena fatua; conditions: pre-emergence
Summary of the method: as §2

[24] = tested on: ECHCG; assay: Post-emergence herbicidal action against ECHCG; type: in vivo, Echinochloa crus-galli; conditions: Echinochloa crus-galli, 504 h, dosage 20 g/ha
Summary of the method: as §1

[25] = tested on: VERPE; assay: Pre-emergence herbicidal action against VERPE; type: in vivo, Veronica persica
Summary of the method: as §2

[26] = tested on: PHBPU; assay: Pre-emergence herbicidal action against PHBPU; type: in vivo, Pharbitis purpurea; conditions: dosage 80 g/ha
Summary of the method: as §2

[27] = Alopecurus myosuroides, 504 h, 80 g/ha, scored visually after 3 weeks vs untreated controls (100% = plants have died, 0% = like control plants)
[28] = Tripleurospermum inodorum, 504 h, dosage 80 g/ha
[29] = 20 g/ha, scored visually after 3 weeks vs untreated controls, 100% = plants have died, 0% = like control plants
[30] = 80 g/ha, scored visually after 3 weeks vs untreated controls, 100% = plants have died, 0% = like control plants
[31] = Abutilon theophrasti, 504 h, 80 g/ha, scored visually after 3 weeks vs untreated controls (100% = plants have died, 0% = like control plants)
[32] = Stellaria media, 504 h, dosage 80 g/ha
[33] = Digitaria sanguinalis, 504 h, dosage 80 g/ha
[34] = 80 g/ha, scored visually after 3 weeks vs untreated controls (100% = plants have died, 0% = like control plants)

CCNC(=O)c1c(C(F)(F)F)ccc(C(=O)Nc2nnnn2C)c1Br [Example 1-208]
90%: pest or weed control at 20 g/ha [2] | pest or weed control at 20 g/ha ([6]; Tripleurospermum inodorum, 504 h, dosage 20 g/ha) | pest or weed control at 20 g/ha ([7]; dosage 20 g/ha) | pest or weed control at 20 g/ha ([9]; dosage 20 g/ha) | pest or weed control at 80 g/ha ([12]; dosage 80 g/ha) | pest or weed control at 20 g/ha [14] | pest or weed control at 20 g/ha ([15]; 20 g/ha) | pest or weed control at 5 g/ha [15]
80%: pest or weed control at 5 g/ha ([1]; dosage 5 g/ha) | pest or weed control at 20 g/ha [1] | pest or weed control at 80 g/ha [4] | pest or weed control at 20 g/ha ([5]; Alopecurus myosuroides, 504 h, 20 g/ha, scored visually after 3 weeks, 100% = plants have died, 0% = like control plants) | pest or weed control at 5 g/ha ([7]; dosage 5 g/ha) | pest or weed control at 5 g/ha ([9]; dosage 5 g/ha) | pest or weed control at 5 g/ha ([11]; Viola tricolor, 504 h, 5 g/ha) | pest or weed control at 20 g/ha ([12]; dosage 20 g/ha) | pest or weed control at 5 g/ha [14] | pest or weed control at 20 g/ha [17] | pest or weed control at 20 g/ha ([21]; Veronica persica, 504 h) | pest or weed control at 20 g/ha ([22]; Tripleurospermum inodorum, 504 h) | pest or weed control at 20 g/ha ([23]; Avena fatua, 504 h, 20 g/ha, scored visually after 3 weeks, 100% = plants have died, 0% = like control plants)
100%: pest or weed control at 20 g/ha ([3]; Viola tricolor, 504 h, dosage 20 g/ha) | pest or weed control at 80 g/ha ([3]; Viola tricolor, 504 h, dosage 80 g/ha) | pest or weed control at 80 g/ha [5, 27] | pest or weed control at 80 g/ha [6, 28] | pest or weed control at 80 g/ha [8] | pest or weed control at 20 g/ha [10, 29] | pest or weed control at 80 g/ha [10, 30] | pest or weed control at 20 g/ha ([11]; Viola tricolor, 504 h, 20 g/ha) | pest or weed control at 80 g/ha [13, 31] | pest or weed control at 20 g/ha ([13]; Abutilon theophrasti, 504 h, dosage 20 g/ha, scored visually after 3 weeks vs untreated controls, 100% = plants have died, 0% = like control plants, read-out: Pre-emergence action against ABUTH (herbicidal activity in percent)) | pest or weed control at 20 g/ha ([16]; dosage 20 g/ha) | pest or weed control at 80 g/ha [16] | pest or weed control at 20 g/ha ([18]; Stellaria media, 504 h, dosage 20 g/ha) | pest or weed control at 80 g/ha [18, 32] | pest or weed control at 20 g/ha [19] | pest or weed control at 20 g/ha ([20]; Digitaria sanguinalis, 504 h, dosage 20 g/ha) | pest or weed control at 80 g/ha [20, 33] | pest or weed control at 80 g/ha ([23]; Avena fatua, 504 h, 80 g/ha)

CNC(=O)c1c(Cl)ccc(C(=O)Nc2nnnn2C)c1C [Example 1-4]
100%: pest or weed control at 20 g/ha [24] | pest or weed control at 80 g/ha [6, 28] | pest or weed control at 80 g/ha [10, 30] | pest or weed control at 80 g/ha [13, 31] | pest or weed control at 80 g/ha [16] | pest or weed control at 80 g/ha [20, 33]
90%: pest or weed control at 5 g/ha ([7]; dosage 5 g/ha) | pest or weed control at 20 g/ha ([7]; dosage 20 g/ha) | pest or weed control at 80 g/ha [8] | pest or weed control at 20 g/ha [10, 29] | pest or weed control at 20 g/ha [14] | pest or weed control at 20 g/ha ([15]; 20 g/ha) | pest or weed control at 80 g/ha ([25]; Veronica persica, 504 h, dosage 80 g/ha) | pest or weed control at 80 g/ha [18, 32] | pest or weed control at 20 g/ha [19] | pest or weed control at 80 g/ha ([23]; Avena fatua, 504 h, 80 g/ha)
80%: pest or weed control at 20 g/ha [1] | pest or weed control at 20 g/ha [2] | pest or weed control at 80 g/ha [4] | pest or weed control at 80 g/ha [5, 27] | pest or weed control at 5 g/ha [14] | pest or weed control at 5 g/ha [15] | pest or weed control at 20 g/ha [17] | pest or weed control at 20 g/ha ([25]; Veronica persica, 504 h, dosage 20 g/ha)

CCCn1nnnc1NC(=O)c1ccc(C(F)(F)F)c(C(=O)NC(C)=O)c1Cl [Example 3-337]
80%: Post-emergence action at 20 g/ha against AVEFA in % [2] | Post-emergence action against ABUTH in % ([7]; dosage 5 g/ha) | Post-emergence action against ABUTH in % ([7]; dosage 20 g/ha) | Post-emergence action against MATIN in % [22]
90%: Pre-emergence action against ECHCG in % [8] | Pre-emergence action against PHBPU in % [26] | Pre-emergence action against DIGSA in % ([20]; dosage 20 g/ha) | Post-emergence action against VERPE in % [21]
100%: Pre-emergence action against VIOTR in % ([3]; dosage 20 g/ha) | Pre-emergence action against VIOTR in % ([3]; dosage 80 g/ha) | Pre-emergence action against HORMU in % [4] | Pre-emergence action against ALOMY (herbicidal activity) [5, 34] | Pre-emergence action against MATIN in % ([6]; dosage 80 g/ha) | Pre-emergence action against AMARE in % [10, 29] | Pre-emergence action against AMARE in % [10, 34] | Post-emergence action against VIOTR in % ([11]; 20 g/ha) | Pre-emergence action against ABUTH (herbicidal activity) [13, 34] | Pre-emergence action against ABUTH (herbicidal activity in percent) ([13]; dosage 20 g/ha, scored visually after 3 weeks vs untreated controls, 100% = plants have died, 0% = like control plants) | Post-emergence action against STEME in % ([15]; 20 g/ha) | Pre-emergence action against VERPE in % ([25]; dosage 80 g/ha) | Pre-emergence action against STEME in % ([18]; dosage 80 g/ha) | Post-emergence action at 20 g/ha against AMARE in % [19] | Pre-emergence action against DIGSA in % ([20]; dosage 80 g/ha) | Pre-emergence action against AVEFA in % ([23]; 80 g/ha)

From patent US12655116B2, “Substituted isophthalic acid diamides” (Bayer Aktiengesellschaft, priority 2020, dated 2026)
